Laboratory results: the supplement of paper PMC8967900

Tests used:
Assay in all cases: selective drug sensitivity score (sDSS, relative to normal bone marrow) (sDSS (score)); higher = more potent and effective on the cell line relative to normal bone marrow cells
Settings in all cases: 72 h
380 = tested on: 380
697 = tested on: 697
CCRF-CEM = tested on: CCRF-CEM
CCRF-HSB2 = tested on: CCRF-HSB2
COG-LL-332h = tested on: COG-LL-332h
COG-LL-394h = tested on: COG-LL-394h
COG-LL-402h = tested on: COG-LL-402h
HAL-01 = tested on: HAL-01
KASUMI-10 = tested on: KASUMI-10
KASUMI-2 = tested on: KASUMI-2
KASUMI-9 = tested on: KASUMI-9
KOPN-8 = tested on: KOPN-8
MHH-CALL-2 = tested on: MHH-CALL-2
MHH-CALL-3 = tested on: MHH-CALL-3
MHH-CALL-4 = tested on: MHH-CALL-4
MN-60 = tested on: MN-60
NALL-1 = tested on: NALL-1
NALM-16 = tested on: NALM-16
P30-OHKUBO = tested on: P30-OHKUBO
PF-382 = tested on: PF-382
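Further: ALL cell lines in 384-well plates, five doses spanning 10,000-fold, each plate scaled between vehicle and 100 µmol/L benzalkonium chloride controls, sDSS an adapted area-under-curve metric.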

## N#Cc1ccc(C(c2ccc(C#N)cc2)n2cncn2)cc1 [Letrozole] (top concentration 10000 nM)
380
  selective drug sensitivity score: -0.04
697
  selective drug sensitivity score: -0.04
CCRF-CEM
  selective drug sensitivity score: -0.04
CCRF-HSB2
  selective drug sensitivity score: -0.04
COG-LL-332h
  selective drug sensitivity score: -0.04
COG-LL-394h
  selective drug sensitivity score: -0.04
COG-LL-402h
  selective drug sensitivity score: -0.04
HAL-01
  selective drug sensitivity score: -0.04
KASUMI-10
  selective drug sensitivity score: -0.04
KASUMI-2
  selective drug sensitivity score: 0.76
KASUMI-9
  selective drug sensitivity score: -0.04
KOPN-8
  selective drug sensitivity score: -0.04
MHH-CALL-2
  selective drug sensitivity score: -0.04
MHH-CALL-3
  selective drug sensitivity score: -0.04
MHH-CALL-4
  selective drug sensitivity score: -0.04
MN-60
  selective drug sensitivity score: -0.04
NALL-1
  selective drug sensitivity score: -0.04
NALM-16
  selective drug sensitivity score: -0.04
P30-OHKUBO
  selective drug sensitivity score: -0.04
PF-382
  selective drug sensitivity score: -0.04

## CCNCCS(=O)(=O)NC[C@@]1(c2ccccc2)SC(NC(=O)C(C)(C)C)=NN1C(=O)C(C)(C)C [Litronesib] (top concentration 1000 nM)
380
  selective drug sensitivity score: 19
697
  selective drug sensitivity score: 20.9
CCRF-CEM
  selective drug sensitivity score: 19.8
CCRF-HSB2
  selective drug sensitivity score: 21.3
COG-LL-332h
  selective drug sensitivity score: 22.1
COG-LL-394h
  selective drug sensitivity score: 7.74
COG-LL-402h
  selective drug sensitivity score: 18
HAL-01
  selective drug sensitivity score: 1.94
KASUMI-10
  selective drug sensitivity score: 14.7
KASUMI-2
  selective drug sensitivity score: 18.9
KASUMI-9
  selective drug sensitivity score: 18.4
KOPN-8
  selective drug sensitivity score: 20.6
MHH-CALL-2
  selective drug sensitivity score: 15.6
MHH-CALL-3
  selective drug sensitivity score: 7.44
MHH-CALL-4
  selective drug sensitivity score: 8.54
MN-60
  selective drug sensitivity score: 4.64
NALL-1
  selective drug sensitivity score: 10.9
NALM-16
  selective drug sensitivity score: 14.3
P30-OHKUBO
  selective drug sensitivity score: 19.6
PF-382
  selective drug sensitivity score: 13.7

## CC[C@H](C)C(=O)O[C@H]1C[C@@H](C)C=C2C=C[C@H](C)[C@H](CC[C@@H]3C[C@@H](O)CC(=O)O3)[C@H]21 [Lovastatin] (top concentration 10000 nM)
380
  selective drug sensitivity score: 7.8
697
  selective drug sensitivity score: 0.1
CCRF-CEM
  selective drug sensitivity score: 0
CCRF-HSB2
  selective drug sensitivity score: -0.1
COG-LL-332h
  selective drug sensitivity score: 0.1
COG-LL-394h
  selective drug sensitivity score: -0.1
COG-LL-402h
  selective drug sensitivity score: -0.1
HAL-01
  selective drug sensitivity score: 2.5
KASUMI-10
  selective drug sensitivity score: -0.1
KASUMI-2
  selective drug sensitivity score: -0.1
KASUMI-9
  selective drug sensitivity score: 2.7
KOPN-8
  selective drug sensitivity score: 4.3
MHH-CALL-2
  selective drug sensitivity score: 8.7
MHH-CALL-3
  selective drug sensitivity score: 8.4
MHH-CALL-4
  selective drug sensitivity score: -0.1
MN-60
  selective drug sensitivity score: -0.1
NALL-1
  selective drug sensitivity score: -0.1
NALM-16
  selective drug sensitivity score: -0.1
P30-OHKUBO
  selective drug sensitivity score: 2.5
PF-382
  selective drug sensitivity score: 0

## Cn1cc(-c2cnn3c(N)c(Br)c([C@@H]4CCCNC4)nc23)cn1 [MK-8776] (top concentration 2500 nM)
380
  selective drug sensitivity score: 3.64
697
  selective drug sensitivity score: 1.54
CCRF-CEM
  selective drug sensitivity score: 1.04
CCRF-HSB2
  selective drug sensitivity score: 0.64
COG-LL-332h
  selective drug sensitivity score: 0.34
COG-LL-394h
  selective drug sensitivity score: -0.96
COG-LL-402h
  selective drug sensitivity score: 2.64
HAL-01
  selective drug sensitivity score: -0.46
KASUMI-10
  selective drug sensitivity score: 2.24
KASUMI-2
  selective drug sensitivity score: -1.46
KASUMI-9
  selective drug sensitivity score: 1.54
KOPN-8
  selective drug sensitivity score: -0.46
MHH-CALL-2
  selective drug sensitivity score: 2.54
MHH-CALL-3
  selective drug sensitivity score: 0.04
MHH-CALL-4
  selective drug sensitivity score: -0.46
MN-60
  selective drug sensitivity score: -1.46
NALL-1
  selective drug sensitivity score: -1.46
NALM-16
  selective drug sensitivity score: 1.14
P30-OHKUBO
  selective drug sensitivity score: -1.16
PF-382
  selective drug sensitivity score: 0.14

## Cc1cnc(-c2ccccc2C(C)C)nc1NCc1ccc(-n2ccnn2)cc1 [ML323] (top concentration 10000 nM)
380
  selective drug sensitivity score: -0.36
697
  selective drug sensitivity score: 3.54
CCRF-CEM
  selective drug sensitivity score: 0.44
CCRF-HSB2
  selective drug sensitivity score: 1.84
COG-LL-332h
  selective drug sensitivity score: 2.04
COG-LL-394h
  selective drug sensitivity score: 3.64
COG-LL-402h
  selective drug sensitivity score: -0.36
HAL-01
  selective drug sensitivity score: 0.04
KASUMI-10
  selective drug sensitivity score: -0.36
KASUMI-2
  selective drug sensitivity score: 0.14
KASUMI-9
  selective drug sensitivity score: 0.04
KOPN-8
  selective drug sensitivity score: 1.14
MHH-CALL-2
  selective drug sensitivity score: 0.24
MHH-CALL-3
  selective drug sensitivity score: -0.36
MHH-CALL-4
  selective drug sensitivity score: -0.36
MN-60
  selective drug sensitivity score: 0.04
NALL-1
  selective drug sensitivity score: 0.14
NALM-16
  selective drug sensitivity score: 0.64
P30-OHKUBO
  selective drug sensitivity score: 0.54
PF-382
  selective drug sensitivity score: 3.04

## O=C(CCNC(=O)c1ccc(OC(F)(F)F)cc1)N[C@@H]1CCCc2ccccc21 [ML390] (top concentration 50000 nM)
380
  selective drug sensitivity score: 12.4
697
  selective drug sensitivity score: 16.4
CCRF-CEM
  selective drug sensitivity score: 9.3
CCRF-HSB2
  selective drug sensitivity score: 12.2
COG-LL-332h
  selective drug sensitivity score: 16.1
COG-LL-394h
  selective drug sensitivity score: -1.2
COG-LL-402h
  selective drug sensitivity score: 3.2
HAL-01
  selective drug sensitivity score: 4.9
KASUMI-10
  selective drug sensitivity score: 4.1
KASUMI-2
  selective drug sensitivity score: 2.9
KASUMI-9
  selective drug sensitivity score: 13.1
KOPN-8
  selective drug sensitivity score: 22.3
MHH-CALL-2
  selective drug sensitivity score: 4.1
MHH-CALL-3
  selective drug sensitivity score: -1.2
MHH-CALL-4
  selective drug sensitivity score: 1.8
MN-60
  selective drug sensitivity score: 16.8
NALL-1
  selective drug sensitivity score: -1.2
NALM-16
  selective drug sensitivity score: 6.6
P30-OHKUBO
  selective drug sensitivity score: 13.6
PF-382
  selective drug sensitivity score: 9.8

## CN(C)C(=N)NC(=N)N [Metformin] (top concentration 100000 nM)
380
  selective drug sensitivity score: -0.02
697
  selective drug sensitivity score: -0.02
CCRF-CEM
  selective drug sensitivity score: -0.02
CCRF-HSB2
  selective drug sensitivity score: -0.02
COG-LL-332h
  selective drug sensitivity score: -0.02
COG-LL-394h
  selective drug sensitivity score: -0.02
COG-LL-402h
  selective drug sensitivity score: -0.02
HAL-01
  selective drug sensitivity score: -0.02
KASUMI-10
  selective drug sensitivity score: -0.02
KASUMI-2
  selective drug sensitivity score: -0.02
KASUMI-9
  selective drug sensitivity score: -0.02
KOPN-8
  selective drug sensitivity score: -0.02
MHH-CALL-2
  selective drug sensitivity score: 0.58
MHH-CALL-3
  selective drug sensitivity score: -0.02
MHH-CALL-4
  selective drug sensitivity score: -0.02
MN-60
  selective drug sensitivity score: -0.02
NALL-1
  selective drug sensitivity score: -0.02
NALM-16
  selective drug sensitivity score: -0.02
P30-OHKUBO
  selective drug sensitivity score: -0.02
PF-382
  selective drug sensitivity score: -0.02

## C[C@H]1C[C@@H]2[C@H]([C@@H](O)C[C@@]3(C)[C@H]2CC[C@]3(O)C(=O)CO)[C@@]2(C)C=CC(=O)C=C12 [Methylprednisolone] (top concentration 10000 nM)
380
  selective drug sensitivity score: 27.2
697
  selective drug sensitivity score: 22.3
CCRF-CEM
  selective drug sensitivity score: 6.4
CCRF-HSB2
  selective drug sensitivity score: 13.9
COG-LL-332h
  selective drug sensitivity score: -0.7
COG-LL-394h
  selective drug sensitivity score: -2.3
COG-LL-402h
  selective drug sensitivity score: 18.5
HAL-01
  selective drug sensitivity score: 1.5
KASUMI-10
  selective drug sensitivity score: -2.3
KASUMI-2
  selective drug sensitivity score: 11.6
KASUMI-9
  selective drug sensitivity score: 4
KOPN-8
  selective drug sensitivity score: 21.1
MHH-CALL-2
  selective drug sensitivity score: 26.5
MHH-CALL-3
  selective drug sensitivity score: 33.2
MHH-CALL-4
  selective drug sensitivity score: 31.6
MN-60
  selective drug sensitivity score: -1.5
NALL-1
  selective drug sensitivity score: 24.8
NALM-16
  selective drug sensitivity score: -2.3
P30-OHKUBO
  selective drug sensitivity score: 18.6
PF-382
  selective drug sensitivity score: -1.6

## FC(F)(F)c1ccc(/C=C/c2nc(COc3ccc(CCCCn4ccnn4)cc3)co2)cc1 [Mubritinib] (top concentration 1000 nM)
380
  selective drug sensitivity score: 0.66
697
  selective drug sensitivity score: 15.5
CCRF-CEM
  selective drug sensitivity score: 6.06
CCRF-HSB2
  selective drug sensitivity score: 9.36
COG-LL-332h
  selective drug sensitivity score: 8.06
COG-LL-394h
  selective drug sensitivity score: 16.2
COG-LL-402h
  selective drug sensitivity score: -0.84
HAL-01
  selective drug sensitivity score: 3.06
KASUMI-10
  selective drug sensitivity score: -2.24
KASUMI-2
  selective drug sensitivity score: 11.6
KASUMI-9
  selective drug sensitivity score: 3.56
KOPN-8
  selective drug sensitivity score: 7.76
MHH-CALL-2
  selective drug sensitivity score: 4.76
MHH-CALL-3
  selective drug sensitivity score: 3.06
MHH-CALL-4
  selective drug sensitivity score: 3.46
MN-60
  selective drug sensitivity score: 17.6
NALL-1
  selective drug sensitivity score: -2.24
NALM-16
  selective drug sensitivity score: 4.66
P30-OHKUBO
  selective drug sensitivity score: 7.06
PF-382
  selective drug sensitivity score: 14.2
